# Experimental data: US6815414B2, “Pharmaceutical compositions for the treatment of helicobacter pylori-associated disorders” (Vecta Ltd., priority 1998, dated 2004)
# “Also recorded” adds a separate entry of the source. No end group written: not given here.
# How the values were obtained:
# H. pylori [1] = assay: Cold inhibition assay: competition on 125I-labeled gastrin uptake by H. pylori; assay type: binding, Helicobacter pylori; conditions: 500 nmol/l 125I-labeled gastrin, increasing concentrations of unlabeled peptide, 45 min, 37° C.
# Method: Bacteria were incubated in the presence of 500 nmo/l ^125I-labeled gastrin and increasing concentrations of either unlabeled gastrin (G), CCK-8 (CCK), pentagastrin (Pen), somatostatin (Som) or EGF for 45 min. Bacteria were washed and radioactivity remaining in bacterial pellets was determined. One experiment representative of three.
# For the cold inhibition assay, bacterial pellets were resuspended in 200 μl Brucella broth containing 500 nmol/l ^125I-labeled gastrin. Unlabeled gastrin in increasing concentrations (1250-5000 nmol/l) was added concurrently. Bacteria were incubated for 45 minutes at 37° C., after which they were extensively washed with PBS. Incorporation of ^125I-labeled gastrin was determined using a gamma counter. As controls, bacteria were incubated with ^125I-labeled gastrin (500 nmol/l) in the presence of CCK-8, pentagastrin, somatostatin or EGF at the indicated concentrations.
# H. pylori [2] = assay: H. pylori growth kinetics in liquid media (optical density); assay type: cell-based, Helicobacter pylori; conditions: peptide added to liquid media at increasing concentrations, microaerophilic, up to 48 h
# [3] = tested on: control bacteria (E. coli, S. pneumonia, C. jejuni); assay: Radioactive gastrin uptake by control bacteria; assay type: cell-based; conditions: 500 nmol/l, 45 min, 4° C. or 37° C.; autoradiography
# Method: (§1) H. pylori (H.P.), E. coli (E.C.), S. pneumonia (S.P.) and C. jejuni (C.J.) bacteria were incubated for 45 minutes with ^125I-labeled gastrin. Incubation was at 4° C. or 37° C. Following initial incubation, proteinase K (P.K) was added for 30 minutes, after which bacteria were washed and blotted. One experiment representative of two.
# (§2) To assess labeled gastrin uptake, bacterial pellets were resuspended in 200 μl Brucella broth containing 500 nmol/l ^125I-labeled gastrin (IncStar Pharmatrade). Incubation was at either 4° C. or 37° C. for 45 minutes. Bacteria were washed three times in PBS, resuspended and incubated for 30 minutes in Brucella broth containing proteinase K (Promega) at a concentration of 25 ng/ml. Subsequently, bacteria were washed, resuspended in 100 μl PBS, out of which 10 μl were blotted on nitrocellulose filters and autoradiography performed for 7 days. Incorporated ^125I was quantitated using a gamma counter.
# H. pylori [4] = assay: Radioactive gastrin uptake by H. pylori; assay type: cell-based, Helicobacter pylori
# Method: as §1, §2
Compound,inhibition of labeled gastrin uptake by H. pylori (H. pylori [1]),"effect on H. pylori growth (growth curve, OD) (H. pylori [2])",labeling of control bacteria by labeled gastrin [3],"uptake (incorporation) of labeled gastrin by H. pylori (H. pylori [4]; 500 nmol/l, 45 min, 37° C. (not at 4° C.), autoradiography)",radioactive counts incorporated by H. pylori before proteinase K incubation (H. pylori [4]; before proteinase K incubation) [CPM],radioactive counts incorporated by H. pylori following incubation with proteinase K (H. pylori [4]; following 30 min incubation with proteinase K) [CPM]
"C[C@H](N)C(=O)NCC(=O)N[C@H]1CSSC[C@@H](C(=O)O)NC(=O)[C@H](CO)NC(=O)[C@H]([C@@H](C)O)NC(=O)[C@H](Cc2ccccc2)NC(=O)[C@H]([C@@H](C)O)NC(=O)[C@H](CCCCN)NC(=O)[C@H](Cc2c[nH]c3ccccc23)NC(=O)[C@H](Cc2ccccc2)NC(=O)[C@H](Cc2ccccc2)NC(=O)[C@H](CC(N)=O)NC(=O)[C@H](CCCCN)NC1=O [somatostatin, somatostatin 14]",no inhibition,none of the peptides had an effect,–,–,–,–
^125I-labeled gastrin: 125I-labeled gastrin (IncStar Pharmatrade) used as radioligand for uptake,–,–,no labeling,only H. pylori incubated at 37 °C incorporated,311,385
"cholecystokinin (CCK)-8 (fragment 26-33) (DYMGWMDF-NH2; ends and bridges not checked; UniProt P06307 96-103, looked up) [CCK-8, gastrin/CCKB receptor agonist peptide comprising Trp-Met-Asp-PheNH2]",competed with gastrin on the binding to H. pylori; also recorded: inhibited labeled gastrin uptake in a dose-dependent manner,did not stimulate bacterial growth; also recorded: none of the peptides had an effect,–,–,–,–
"epidermal growth factor (EGF) (NSDSECPLSHDGYCLHDGVCMYIEALDKYACNCVVGYIGERCQYRDLKWWELR; Epidermal growth factor; UniProt P01133 971-1023, looked up) [growth factor peptide found within the gastric lumen, control peptide]",no inhibition,none of the peptides had an effect,–,–,–,–
